Measurements reported in BindingDB's records for doi:10.1016/j.bmcl.2004.06.018 (Darmstadt Technical University, 2004).

Molecular target: Proto-oncogene tyrosine-protein kinase Src (Homo sapiens, UniProt P12931)
Test: Inhibition of fluorescent (GpYEEI) binding to Src protein tyrosine kinase SH2 domain

Sequence of Proto-oncogene tyrosine-protein kinase Src (P12931 2-536 limits assumed): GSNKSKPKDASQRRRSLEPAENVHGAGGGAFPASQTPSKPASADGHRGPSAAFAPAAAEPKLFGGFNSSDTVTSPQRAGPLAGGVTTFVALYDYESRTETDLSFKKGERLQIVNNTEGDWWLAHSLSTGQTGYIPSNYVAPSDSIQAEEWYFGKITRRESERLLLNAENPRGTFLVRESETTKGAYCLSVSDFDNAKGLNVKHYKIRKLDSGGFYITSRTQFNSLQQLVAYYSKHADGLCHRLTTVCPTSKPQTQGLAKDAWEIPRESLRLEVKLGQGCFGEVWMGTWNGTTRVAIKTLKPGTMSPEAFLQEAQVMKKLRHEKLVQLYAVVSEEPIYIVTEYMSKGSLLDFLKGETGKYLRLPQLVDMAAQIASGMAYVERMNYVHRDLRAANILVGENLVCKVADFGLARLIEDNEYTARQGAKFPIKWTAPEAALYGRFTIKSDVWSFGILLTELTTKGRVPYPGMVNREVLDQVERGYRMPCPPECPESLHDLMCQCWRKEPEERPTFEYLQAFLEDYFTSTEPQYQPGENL

Row | Compound | IC50
1 | COc1cccc(CNC(=O)[C@@H](NC(=O)COc2cc3[n+]4c(c2)C(=O)[O][Cu]4([OH])[O]C3=O)c2ccccc2)c1 [Copper complex] | 20 µM
2 | COc1cccc(CNC(=O)[C@H](Cc2ccccc2)NC(=O)COc2cc3[n+]4c(c2)C(=O)[O][Cu]4([OH])[O]C3=O)c1 [Copper complex] | 17 µM
